The record followed here is US20070253896A1, “7,9-Dihydro-Purin-8-One and Related Analogs as HSP90-Inhibitors” (CONFORMA THERAPEUTICS CORPORATION, priority 2006, published 2007).

Some results are limits rather than exact numbers.

For experiment [1], the system named is MCF7 breast carcinoma cells. Put plainly: MTS Assay. Format: cell-based. As to conditions: Homo sapiens, concentration giving 50% reduction in viable cell number. As for the experimental part: MTS assays measure the cytotoxicity of geldanamycin derivatives. MTS (3-(4,5-dimethylthiazol-2-yl)-5-(3-carboxymethoxyphenyl)-2-(4-sulfophenyl)-2H-tetrazolium) is a tetrazolium dye that is converted to a formazan product by dehydrogenase enzymes of metabolically active cells (Corey, A. et al. “Use of an aqueous soluble tetrazolium/formazan assay for cell growth assays in culture,” Cancer Commun. 1991, 3, 207-212). Cells were seeded in 96 well plates at 2000 cells/well and allowed to adhere overnight in Dulbecco's modified Eagle's medium supplemented with 10% fetal bovine serum. The final culture volume was 100 μl. Viable cell number was determined by using the Celltiter 96 AQueous Non-radioactive Cell Proliferation Assay (Promega, Madison Wis.). The MTS/PMS (phenazine methosulfate) solution was mixed at a ratio of 20:1, and 20 μL was added per well to 100 μl of culture medium. After 2-4 hours, the formation of the formazan product was measured at 490 nm absorbance using a multiwell plate spectrophotometer. Background was determined by measuring the Abs 490 nm of cell culture medium and MTS-PMS in the absence of cells and was subtracted from all values. Percent viable cells was calculated as follows: % viable cells=(Abs at 490 nm treated cells/Abs at 490 nm untreated cells)×100
The effect of selected compounds of the invention on MCF7 breast carcinoma cells according to the MTS assay is summarized in Table 2. IC50 was defined as the concentration of the compound which gave rise to 50% reduction in viable cell number.

Experiment [2] deals with HER2/Neu protein. Put plainly: HER2 Degradation Assay. The format is cell-based. As to conditions: Homo sapiens; MCF7 breast carcinoma cells, 16 h incubation, flow cytometry; concentration at which there was 50% degradation of the HER2/Neu protein. The procedure:
MCF7 breast carcinoma cells (ATCC) were grown in Dulbecco's modified Eagle's medium (DMEM) containing 10% fetal bovine serum (FBS) and 10 mM HEPES, and plated in 24 well plates (50% confluent). Twenty-four hrs later (cells are 65-70% confluent), test compounds were added and incubated overnight for 16 h. […] The wells were washed with 1 mL phosphate buffered saline (PBS), and 200 μL trypsin was added to each well. After trypsinization was complete, 50 μL of FBS was added to each well. Then 200 μL cells was transferred to 96 well plates. The cells were pipetted up and down to obtain a single cell suspension. The plates were centrifuged at 2,500 rpm for 1 min using a Sorvall Legend RT™0 tabletop centrifuge (Kendro Laboratory Products, Asheville, N.C.). The cells were then washed once in PBS containing 0.2% BSA and 0.2% sodium azide (BA buffer). Phycoerythrin (PE) conjugated anti HER2/Neu antibody (Becton Dickinson, #340552), or PE conjugated anti-keyhole limpet hemocyanin [KLH] (Becton Dickinson; #340761) control antibody was added at a dilution of 1:20 and 1:40 respectively (final concentration was 1 μg/mL) and the cells were pipetted up and down to form a single cell suspension, and incubated for 15 mins. The cells were washed twice with 200 μL BA buffer, and resuspended in 200 μL BA buffer, and transferred to FACSCAN tubes with an additional 250 µL BA buffer. Samples were analyzed using a FACS Calibur™ flow cytometer (Becton Dickinson, San Jose, Calif.) equipped with Argon-ion laser that emits 15 mW of 488 nm light for excitation of the PE fluorochrome. 10,000 events were collected per sample. A fluorescence histogram was generated and the mean fluorescence intensity (MFI) of each sample was determined using Cellquest software. The background was defined as the MFI generated from cells incubated with control IgG-PE, and was subtracted from each sample stained with the HER2/Neu antibody. Cells incubated with DMSO were used as untreated controls since the compounds were resuspended in DMSO. Percent degradation of HER2 was calculated as follows: % HER2 degraded=[(MFI untreated cells−MF1 treated cells)/MFI untreated cell]×100
IC50 is defined as the concentration at which there was 50% degradation of the HER2/Neu protein.
A general note: A flow cytometer gives signals particle by particle.

One may read the IC50 as the concentration needed to halve the response being measured. A high value points to lower potency. Consider `COc1c(C)cnc(Cn2c(=O)n(CCC(F)=C(F)F)c3c(Cl)nc(N)nc32)c1C` [Example 71, 2-Amino-6-chloro-9-(4-methoxy-3,5-dimethyl-pyridin-2-ylmethyl)-7-(3,4,4-trifluoro-but-3-enyl)-7,9-dihydro-purin-8-one], for which the IC50 in experiment [1] is above 1 µM; in experiment [2] it was 0.16 µM.

Turning to `Cc1cnc(Cn2c(=O)n(CCn3cccc3)c3c(Cl)nc(N)nc32)c(C)c1I` [Example 96, 7-(2-(1H-pyrrol-1-yl)ethyl)-2-amino-6-chloro-9-((4-iodo-3,5-dimethylpyridin-2-yl)methyl)-7H-purin-8(9H)-one], the IC50 came to 0.3 µM in experiment [1] and 0.042 µM in experiment [2].

Regarding `COc1c(C)cnc(Cn2c(=O)n(Cc3ccccn3)c3c(Cl)nc(N)nc32)c1C` [Example 82, 2-Amino-6-chloro-9-(4-methoxy-3,5-dimethyl-pyridin-2-ylmethyl)-7-pyridin-2-ylmethyl-7,9-dihydro-purin-8-one], the IC50 was 1 µM in experiment [1] and 0.17 µM in experiment [2].

On to `Cc1cnc(Cn2c(=O)n(CCN(C(C)C)C(C)C)c3c(Cl)nc(N)nc32)c(C)c1I` [Example 98, 2-amino-6-chloro-7-(2-(diisopropylamino)ethyl)-9-((4-iodo-3,5-dimethylpyridin-2-yl)methyl)-7H-purin-8(9H)-one], for which the values for the concentration for half-maximal inhibition (IC50) in experiment [1] and in experiment [2] were 0.6 µM and 0.03 µM, respectively.

As for `C=CCCCn1c(=O)n(Cc2ncc(C)c(OC)c2C)c2nc(N)nc(Cl)c21` [Example 35, 2-Amino-6-chloro-9-(4-methoxy-3,5-dimethyl-pyridin-2-ylmethyl)-7-pent-4-enyl-7,9-dihydro-purin-8-one], the IC50 is 1 µM in experiment [1] and 0.16 µM in experiment [2].

Turning to `Cc1cnc(Cn2c(=O)n(Cc3ccccn3)c3c(Cl)nc(N)nc32)c(C)c1I` [Example 99, 2-amino-6-chloro-9-((4-iodo-3,5-dimethylpyridin-2-yl)methyl)-7-(pyridin-2-ylmethyl)-7H-purin-8(9H)-one], the IC50 in experiment [1] was above 1 µM; in experiment [2] it was 0.12 µM.

In the case of `COc1c(C)cnc(Cn2c(=O)n(CCC=C(C)C)c3c(Cl)nc(N)nc32)c1C` [Example 20, 2-Amino-6-chloro-9-(4-methoxy-3,5-dimethyl-pyridin-2-ylmethyl)-7-(4-methyl-pent-3-enyl)-7,9-dihydro-purin-8-one], the results for the IC50 in experiment [1] and in experiment [2] were above 1 µM and 0.14 µM, respectively.

For the molecule `CC(=O)n1c(=O)n(Cc2ncc(C)c(I)c2C)c2nc(N)nc(Cl)c21` [Example 105, 7-acetyl-2-amino-6-chloro-9-((4-iodo-3,5-dimethylpyridin-2-yl)methyl)-7H-purin-8(9H)-one], the results for the 50% inhibitory concentration (IC50) in experiment [1] and in experiment [2] were 0.3 µM and 0.09 µM, respectively.

In the case of `COc1c(C)cnc(Cn2c(=O)n(CCn3cccc3)c3c(Cl)nc(N)nc32)c1C` [Example 89, 2-Amino-6-chloro-9-(4-methoxy-3,5-dimethyl-pyridin-2-ylmethyl)-7-(2-pyrrol-1-yl-ethyl)-7,9-dihydro-purin-8-one], the half-inhibitory concentration (IC50) worked out at 1 µM in experiment [1] and 0.12 µM in experiment [2].

With `Cc1cnc(Cn2c(=O)n(CCN(C)C(C)C)c3c(Cl)nc(N)nc32)c(C)c1I` [Example 108, 2-amino-6-chloro-9-((4-iodo-3,5-dimethylpyridin-2-yl)methyl)-7-(2-(isopropyl(methyl)amino)ethyl)-7H-purin-8(9H)-one], the IC50 was 0.7 µM in experiment [1] and 0.14 µM in experiment [2].

Turning to `Cc1cnc(Cn2c(=O)[nH]c3c(Cl)nc(N)nc32)c(C)c1I` [Example 6, 2-amino-6-chloro-9-((4-iodo-3,5-dimethylpyridin-2-yl)methyl)-7H-purin-8(9H)-one], the IC50 in experiment [1] was determined as 0.3 µM; in experiment [2], 0.07 µM.

As for `COC(=O)c1ccc(Cn2c(=O)n(Cc3ncc(C)c(OC)c3C)c3nc(N)nc(Cl)c32)cc1` [Example 80, 4-[2-Amino-6-chloro-9-(4-methoxy-3,5-dimethyl-pyridin-2-ylmethyl)-8-oxo-8,9-dihydro-purin-7-ylmethyl]-benzoic acid methyl ester], the results for the IC50 in experiment [1] and in experiment [2] were above 1 µM and 0.16 µM, respectively.

Turning to `CCCN(CCC)CCn1c(=O)n(Cc2ncc(C)c(I)c2C)c2nc(N)nc(Cl)c21` [Example 107, 2-amino-6-chloro-7-(2-(dipropylamino)ethyl)-9-((4-iodo-3,5-dimethylpyridin-2-yl)methyl)-7H-purin-8(9H)-one], the IC50 in experiment [1] was above 1 µM; in experiment [2] it was 0.13 µM.
